{"source": "patent US6994983B2", "about": "“Kits for determination of thromboxane B2 metabolite and optimizing aspirin dosage” (Esoterix, Inc. Coagulation, priority 1999, dated 2006)", "key": {"[1]": {"settings": "cited from earlier work"}, "platelet aggregation [2]": {"test_system": "platelet aggregation", "settings": "intermittent claudication, 100 mg aspirin/day, at any given time; cited from earlier work"}, "11-dehydro TXB2 [3]": {"test_system": "11-dehydro TXB2", "assay": "11-dehydro TXB2 in random urine of aspirin users and non-users (acetylcholinesterase-linked immunoassay)", "format": "in vivo, human", "settings": "45 people taking at least 81 mg/day; non-aspirin users 2080", "experimental": "Random urine specimens were collected from 65 individuals who had avoided aspirin for at least two weeks and from 45 individuals who were taking 81 or 325 mg/day by prescription. Each specimen was assayed for 11-dehydro-TXB2. Specimens were assayed at two dilutions using acetylcholinesterase-linked immunoassay. The results were tested for parallelism and averaged. Urine creatinine was assayed using the Jaffe picrate reaction. To normalize for urinary output, results were expressed in pg 11-dehydro TXB2/mg creatinine. Results of all populations were compared using the student t-test. Within-day variation is 30% and day-to-day variation 20%.\n11-dehydrothromboxane B2 (11-de-H-TXB2), a stable metabolite of platelet activation was measured in random urine specimens from 65 people who were not taking aspirin and 45 who were taking at least 81 mg/day. The means for non-aspirin users was 2080 pg 11-de-H-TXB2/mg creatinine, and for aspirin users was 523, p.<0.0000.1. Receiver-operating characteristic analysis yields an optimum decision point of 1000 pg 11-de-H-TXB2 in random urine may be used to document aspirin's platelet-suppressive effects and to identify individuals who may not achieve antithrombotic benefits."}, "[4]": {"settings": "in vivo; cited from earlier work"}, "platelet aggregation [5]": {"test_system": "platelet aggregation", "settings": "cited from earlier work"}, "[6]": {"settings": "smokers after partial ileal bypass surgery reporting even infrequent aspirin use; 45.2% with no aspirin use; cited from earlier work"}, "11-dehydro TXB2 [7]": {"test_system": "11-dehydro TXB2", "assay": "Platelet urinary response ratio (PURR), aspirin therapy vs non-users, reformulated buffer", "format": "in vivo, human", "description": "The PURRs generated in the 11-dehydro thromboxane B2 assay in the present example were higher than those generated in subsequent studies. The average reduction after the investigators initial assay was 60%. This change was a result of a reformulation of the reagent buffer. Reformation of the buffer was made by the supplier, Cayman Chemical Corporation. The initial buffer was thought to be a phosphate saline buffer. The reformatted buffer is an alpha diethanolamine buffer. […] The buffer change was made to convert any lactone form present in the same urine to the free acid form of the thromboxane. The current procedure requires a two-hour pre-incubation of the urine sample in the diethanolamine buffer in order to allow for the conversion of the forms before pipetting to the plate. The new decision point for the assay is 400 PURR units, down from the original 1000.\nTo normalize for urinary output, results are expressed as platelet urinary response ratio (PURR) based upon pg 11-dehydro TXB2/g creatinine. Results of all populations were compared using the student t-test."}, "[8]": {"test_system": "11-dehydro thromboxane B2", "assay": "Urine 11-dehydro thromboxane B2 (PURR) after one-week interventions with purple grape juice, vitamin E and aspirin", "format": "in vivo, human", "settings": "for Mean post-intervention PURR: one week each: purple grape juice controlled daily volumes, mean baseline 1105; for Mean post-intervention PURR / % Change of PURR vs mean baseline: vitamin E 400 international units per day, aspirin 650 mg per day; for % Change of PURR vs mean baseline: one week each: purple grape juice; for effect upon urinary excretion of 11-dehydro thromboxane B2: one-week interventions, in words", "experimental": "11-dehydro thromboxane B2, a stable metabolite of platelet-specific cyclooxygenase activity, in urine specimens from 29 individuals was measured. Participants were instructed to drink controlled daily volumes of purple grape juice, 400 international units per day of vitamin E, and 650 mg per day of aspirin. Each intervention was given in one-week intervals separated by a one-week washout period. The metabolite was measured in baseline, post-intervention, and post-washout urine specimens and the results were expressed as platelet urinary response ratios (PURR) based upon pg 11-dehydrothromboxane B2/mg creatinine."}, "11-dehydro TXB2 [9]": {"test_system": "11-dehydro TXB2", "assay": "Crossover study: urine 11-dehydro TXB2 before and 24 hours after one 81 or 325 mg aspirin tablet in 24 healthy individuals", "format": "in vivo, human", "settings": "for mean reduction of 11-dehydro TXB2 / PURR: healthy non-aspirin users", "experimental": "In a crossover study, 24 healthy individuals who had avoided aspirin for a minimum of 10 days collected random baseline urine specimens. They then took one 81 or 325 mg tablet at 8:00 a.m. and collected a second urine specimen 24 hours after the aspirin was taken. Following a two-week washout period dosages were reversed and another baseline and 24-hours post-aspirin specimen was collected.\nIn a crossover study, twenty-four healthy individuals who had avoided aspirin for a minimum of ten days collected random baseline urine specimens. They then took one 81 or 325 mg tablet at 8:00 AM and collected a second urine specimen 24 hours after the aspirin was taken. Following a 2-week washout period dosages were reversed and another baseline and 24-hours post-aspirin specimen was collected."}, "[10]": {"settings": "single dose of 325 mg; cited from earlier work"}, "[11]": {"test_system": "platelet suppression response", "settings": "patients on aspirin therapy; cited from earlier work"}, "platelet reactivity": {"test_system": "platelet reactivity", "settings": "cited from earlier work"}, "serum TXB2": {"test_system": "serum TXB2", "settings": "3 mg of aspirin per day, healthy volunteers; cited from earlier work"}, "[12]": {"settings": "patients with prior acute myocardial infarction or stroke; cited from earlier work"}, "[13]": {"settings": "in vivo; cited from earlier work", "remark": "listed apart in the source"}}, "note": "“And” between values parts separate entries of the source, which are not always exact repeats. Equal values may be shown once."}
{"compound": "CC(=O)Oc1ccccc1C(=O)O", "note": "[Aspirin, acetyl salicylic acid]", "values": [{"measurement": "reduction of the morning peak of infarction", "setting": "[1]; between 4 and 10 a.m., 325 mg every other day", "value": 59.3, "unit": "%"}, {"measurement": "mean reduction in the incidence of first myocardial infarction", "setting": "[1]; healthy men, 325 mg every other day, vs placebo", "value": 44.8, "unit": "%"}, {"measurement": "thrombotic events prevented, average", "setting": "[1]; healthy men", "value": "four"}, {"measurement": "males with complete inhibition of aggregation", "setting": "platelet aggregation [2]", "value": 40, "unit": "%"}, {"measurement": "mean 11-de-H-TXB2 in random urine of aspirin users", "setting": "11-dehydro TXB2 [3]", "value": "523 pg 11-de-H-TXB2/mg creatinine"}, {"measurement": "relative risk for hemorrhagic stroke", "setting": "[4]", "value": 4, "unit": "×"}, {"measurement": "relative risk of ischemic stroke", "setting": "[4]", "value": 1.6, "unit": "×"}, {"measurement": "patients with only partial inhibition of platelet aggregation", "setting": "platelet aggregation [5]; atrial fibrillation, 325 mg enteric coated aspirin per day", "value": "seven of 17"}, {"measurement": "patients with restoration of platelet aggregation (aspirin resistance)", "setting": "platelet aggregation [5]; previous ischemic stroke, escalation to 1300 mg/day", "value": 8.2, "unit": "%"}, {"measurement": "overall mortality rate", "setting": "[6]", "value": 10.4, "unit": "%"}, {"measurement": "Mean PURR, aspirin therapy", "setting": "11-dehydro TXB2 [7]; 81 to 325 mg/day, N 98, aspirin non-users 1147", "value": 297, "unit": "PURR units"}, {"measurement": "individuals identified as potential non-responders", "setting": "11-dehydro TXB2 [7]; aspirin users, decision points 400 / 500 pg 11-dehydro-TXB2/mg creatinine", "value": 13, "unit": "%"}, {"measurement": "Mean post-intervention PURR", "setting": "[8]", "value": 379.7, "unit": "PURR"}, {"measurement": "% Change of PURR vs mean baseline", "setting": "[8]", "value": "−65.6", "unit": "%"}, {"measurement": "effect upon urinary excretion of 11-dehydro thromboxane B2", "setting": "[8]", "value": "large and statistically significant effect"}, {"measurement": "% Inhibition (81)", "setting": "11-dehydro TXB2 [9]; 81 mg aspirin, urine 11-dehydro TXB2 24 hours post-dose vs baseline, individual subjects 3, 8, 12, 14, 17, 18, 24 with weak response", "value": "60% and 78% and 46% and 48% and 70% and 17% and 10%"}, {"measurement": "mean reduction of 11-dehydro TXB2 / PURR", "setting": "11-dehydro TXB2 [9]; 81 mg/day", "value": 68, "unit": "%"}, {"measurement": "% Inhibition (325)", "setting": "11-dehydro TXB2 [9]; 325 mg aspirin, urine 11-dehydro TXB2 24 hours post-dose vs baseline, individual subjects 3, 8, 12, 14, 17, 18, 24 with weak response", "value": "44% and 40% and 82% and 83% (2×) and 46% and 38%"}, {"measurement": "mean reduction of 11-dehydro TXB2 / PURR", "setting": "11-dehydro TXB2 [9]; 325 mg/day", "value": 76, "unit": "%"}, {"measurement": "individuals with a less than 50% response to either 81 mg or 325 mg of aspirin", "setting": "11-dehydro TXB2 [9]; crossover study, seven individuals", "value": 30, "unit": "%"}, {"measurement": "duration of effect on platelet laboratory assays", "setting": "[10]", "value": "six to ten"}, {"measurement": "individuals with aspirin resistance / less than adequate platelet suppression response", "setting": "[11]", "value": "up to 20%"}, {"measurement": "subjects with immediate suppression of platelet reactivity", "setting": "platelet reactivity; 500 mg three times per day, upon initial administration", "value": 90, "unit": "%"}, {"measurement": "secondary aspirin non-responders with myocardial infarct, repeat stroke, or vascular death", "setting": "platelet reactivity; 24-month period following discharge", "value": 40, "unit": "%"}, {"measurement": "remaining subjects with major endpoints", "setting": "platelet reactivity; 114 remaining subjects, 24-month period", "value": 4.4, "unit": "%"}, {"measurement": "reduction of serum TXB2 levels compared to placebo", "setting": "serum TXB2", "value": 39, "unit": "%"}, {"measurement": "new thrombotic events prevented", "setting": "[12]", "value": "up to 40 per thousand treated"}]}
{"compound": "CCCCCC(O)C=CC1OC(=O)CC(O)C1CC=CCCCC(=O)O", "note": "(stereo not shown) [11-dehydro TXB2, 11-dehydro thromboxane B2]", "values": [{"measurement": "plasma half-life", "setting": "[13]", "value": 45, "unit": "min"}]}
{"compound": "Vitamin E", "values": [{"measurement": "Mean post-intervention PURR", "setting": "[8]", "value": 1293.1, "unit": "PURR"}, {"measurement": "% Change of PURR vs mean baseline", "setting": "[8]", "value": "+14.3%"}, {"measurement": "effect upon urinary excretion of 11-dehydro thromboxane B2", "setting": "[8]", "value": "no measurable effect"}]}
